Source: article PMC11678245, “The Molecular Basis of the Intrinsic and Acquired Resistance to Azole Antifungals in Aspergillus fumigatus” (Journal of Fungi, 2024)
“Also recorded” adds a separate entry of the source. Numbered stars: 1 amine (or outer) side, 2 acyl side, 3 side chain; on linkers, the order of the positions; unused ones are H or OH. Bridge positions count the residues as written; N and C are the ends. Square brackets hold non-standard residues; d marks the D form. Peptide text beside a SMILES is read from it. * marks the point of attachment. hTyr(3S-OH,4S-OH,3'-OSO3H) = N[C@H](C(=O)O)[C@H](O)[C@@H](O)c1ccc(O)c(OS(=O)(=O)O)c1; Orn(4R-OH,5R-OH) = O=C([C@H](C[C@@H](O)[C@@H](O)N[*:3])N[*:1])[*:2]; Pro(3S-OH,4S-Me) = C[C@H]1CN[C@H](C(=O)O)[C@H]1O; X1 = CCCCCOc1ccc(-c2cc(-c3ccc(C(=O)*)cc3)no2)cc1; Gln(3R-OH) = NC(=O)C[C@@H](O)[C@H](N)C(=O)O; Hyp = O=C(O)[C@@H]1C[C@@H](O)CN1

What was measured:
AfCYP51B-6×His = target: T1, AfCYP51B-6×His (Aspergillus fumigatus, UniProt E9QY26); test: Type I binding of substrates (difference spectra); settings: for ΔAmax (type I binding): AfCYP51B-6×His 5 μM, Michaelis–Menten equation
T1 sequence (E9QY26 1-524): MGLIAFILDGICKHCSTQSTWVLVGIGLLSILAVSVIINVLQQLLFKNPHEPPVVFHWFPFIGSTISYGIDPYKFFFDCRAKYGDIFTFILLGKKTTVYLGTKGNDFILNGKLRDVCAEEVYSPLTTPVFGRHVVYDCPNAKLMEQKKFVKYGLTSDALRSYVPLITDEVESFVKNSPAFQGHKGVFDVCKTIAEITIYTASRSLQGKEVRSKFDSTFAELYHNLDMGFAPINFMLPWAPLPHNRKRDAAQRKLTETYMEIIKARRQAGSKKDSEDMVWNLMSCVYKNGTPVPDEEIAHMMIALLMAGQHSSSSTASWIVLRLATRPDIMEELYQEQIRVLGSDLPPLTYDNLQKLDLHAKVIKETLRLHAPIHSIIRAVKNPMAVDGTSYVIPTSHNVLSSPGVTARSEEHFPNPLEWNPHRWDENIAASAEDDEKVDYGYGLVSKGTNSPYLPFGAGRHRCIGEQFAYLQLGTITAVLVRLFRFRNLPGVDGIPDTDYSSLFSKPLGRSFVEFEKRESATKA
Method: (§1) The concentration of AfCYP51A and AfCYP51B, purified using Ni-NTA affinity chromatography and used for the spectrophotometric type I and type II binding assays, was calculated using an extinction co-efficient of λ417nm = 117 mM^−1 cm^−1 applied to the absolute absorption spectrum of the preparations. In addition, the amount of “active” cytochrome P450 enzyme was determined using the carbon monoxide (CO) binding spectra of these preparations.
(§2) Type I binding of substrates lanosterol and eburicol in the active site of the Ni-NTA affinity-purified AfCYP51A and AfCYP51B enzymes was assessed using the method of Warrilow et al.. Titrations of 5 μM AfCYP51-6×His protein with lanosterol or eburicol (1 to 250 μM) were measured using a Cary 300 UV–Visible Spectrophotometer (Agilent Technologies, Santa Clara, CA, USA). Substrate saturation curves were constructed by plotting the maximal ∆Apeak−trough obtained between 350 and 500 nm, allowing for a change in the reaction volume during the titration. The substrate binding constant (KS) was calculated by nonlinear regression (Levenberg–Marquardt algorithm) applied to the Michaelis–Menten equation or the Hill equation. GraphPad Prism 9.2.0 software was used to identify the best fit for the data.

AfCYP51A-6×His = AfCYP51A-6×His (Aspergillus fumigatus, UniProt Q4WNT5); test: Type I binding of substrates (difference spectra); set-up: Full-length codon-optimised AfCYP51A-6×His and AfCYP51B-6×His were constitutively co-expressed; made in house; settings: AfCYP51A-6×His 5 µM, concentrations up to 300 μM
Method: as §1
as §2, with “Titrations of 5 μM AfCYP51-6×His protein with lanosterol or eburicol (1 to 250 μM) were measured using a Cary 300 UV–Visible Spectrophotometer (Agilent Technologies, Santa Clara, CA, USA).” left out

[1] = test system: S. cerevisiae strain ADΔΔ (native ScCYP51); test: MIC80 susceptibility, host strain ADΔΔ; assay type: cell-based; settings: Saccharomyces cerevisiae, Table 2, SD pH 6.8, 48 h, 30 °C
Method: (§3) The susceptibilities of S. cerevisiae strains to antifungal drugs were determined as minimum growth inhibitory concentration (MIC) values in 200 μL SD pH 6.8 [24]. Serial 2-fold dilutions of 100 μL of azole or control drugs in SD pH 6.8 were prepared in a 96-well microtiter plate. A portion of a 2 mL SD pH 6.8 overnight culture of the test strain was inoculated into 3 mL fresh SD pH 6.8 and incubated for 4 to 6 h at 30 °C to generate logarithmic-phase cells. These cells were then diluted with fresh SD pH 6.8 to OD600nm = 0.01 (3 × 10^4 CFU), and 100 μL of this cell suspension was added to microtiter plate wells. Cell growth after 48 h incubation at 30 °C with shaking at 200 rpm was determined at 600 nm using a BioTek™ Synergy™ 2 multi-Mode microplate reader controlled using Gen5™ Data Analysis Software version 3.16.10 (BioTek Instruments, Winooski, VT, USA). MIC80 values (80% growth inhibition in the presence of the test drug compared with the untreated control) for each yeast construct were determined as technical triplicates repeated three times for three separate clones.

[2] = test system: S. cerevisiae strain A (AfCyp51A-6×His, native ScCyp51 retained); test: MIC80 susceptibility, strain A; assay type: cell-based; settings: Saccharomyces cerevisiae, Table 2, SD pH 6.8, 48 h, 30 °C
Method: as §3

[3] = test system: S. cerevisiae strain AR (AfCyp51A-6×His, AfCprA2-6×His); test: MIC80 susceptibility, strain AR; assay type: cell-based, Saccharomyces cerevisiae; settings: Saccharomyces cerevisiae; Table 2; strain AR; SD pH 6.8, 48 h, 30 °C; ± SD; read-out: MIC80
Method: as §3

[4] = test system: S. cerevisiae strain ARE Y121F (AfCyp51A-6×His Y121F, AfCprA2, AfErg6-FLAG); test: MIC80 susceptibility, strain Y121F; assay type: cell-based, Saccharomyces cerevisiae; settings: Saccharomyces cerevisiae; Table 2; strain Y121F; SD pH 6.8, 48 h, 30 °C; ± SD; read-out: MIC80
Method: as §3

[5] = test system: S. cerevisiae strain ARE T289A (AfCyp51A-6×His T289A, AfCprA2, AfErg6-FLAG); test: MIC80 susceptibility, strain T289A; assay type: cell-based, Saccharomyces cerevisiae; settings: Saccharomyces cerevisiae, 48 h, pH 6.8, Table 2; strain T289A; SD pH 6.8, 48 h, 30 °C; ± SD; read-out: MIC80
Method: as §3

[6] = test system: S. cerevisiae strain ARE Y121F T289A (AfCyp51A-6×His Y121F T289A, AfCprA2, AfErg6-FLAG); test: MIC80 susceptibility, strain Y121F T289A; assay type: cell-based, Saccharomyces cerevisiae; settings: Saccharomyces cerevisiae; Table 2; strain Y121F T289A; SD pH 6.8, 48 h, 30 °C; ± SD; read-out: MIC80
Method: as §3

[7] = test system: S. cerevisiae strain ARE I301T (AfCyp51A-6×His I301T, AfCprA2, AfErg6-FLAG); test: MIC80 susceptibility, strain I301T; assay type: cell-based, Saccharomyces cerevisiae; settings: Saccharomyces cerevisiae, 48 h, pH 6.8, Table 2; strain I301T; SD pH 6.8, 48 h, 30 °C; ± SD; read-out: MIC80
Method: as §3

[8] = test system: S. cerevisiae strain B (AfCyp51B-6×His, native ScCyp51 retained); test: MIC80 susceptibility, strain B; assay type: cell-based; settings: Saccharomyces cerevisiae, Table 2, SD pH 6.8, 48 h, 30 °C
Method: as §3

[9] = test system: S. cerevisiae strain BR (AfCyp51B-6×His, AfCprA2-6×His); test: MIC80 susceptibility, strain BR; assay type: cell-based; settings: Saccharomyces cerevisiae; Table 2; strain BR; SD pH 6.8, 48 h, 30 °C; ± SD; read-out: MIC80
Method: as §3

[10] = test system: S. cerevisiae strain BRE (AfCyp51B-6×His, AfCprA2, AfErg6-FLAG); test: MIC80 susceptibility, strain BRE; assay type: cell-based, Saccharomyces cerevisiae; settings: Saccharomyces cerevisiae; Table 2; strain BRE; SD pH 6.8, 48 h, 30 °C; ± SD; read-out: MIC80
Method: as §3

Sequence of AfCYP51A-6×His (Q4WNT5 whole entry): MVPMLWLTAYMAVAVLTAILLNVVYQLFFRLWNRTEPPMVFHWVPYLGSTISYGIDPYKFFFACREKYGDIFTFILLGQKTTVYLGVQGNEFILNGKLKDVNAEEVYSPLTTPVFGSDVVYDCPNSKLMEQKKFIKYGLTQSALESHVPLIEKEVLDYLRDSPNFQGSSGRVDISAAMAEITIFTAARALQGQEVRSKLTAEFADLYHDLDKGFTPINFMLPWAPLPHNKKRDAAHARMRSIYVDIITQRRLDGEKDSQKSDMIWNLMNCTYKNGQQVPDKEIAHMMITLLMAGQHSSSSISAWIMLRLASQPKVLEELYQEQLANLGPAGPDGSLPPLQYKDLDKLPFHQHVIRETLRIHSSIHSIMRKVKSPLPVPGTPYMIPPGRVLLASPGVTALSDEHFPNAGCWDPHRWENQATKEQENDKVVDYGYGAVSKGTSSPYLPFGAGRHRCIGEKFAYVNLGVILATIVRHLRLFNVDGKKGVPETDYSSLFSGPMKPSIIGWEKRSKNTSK

Row | Structure (SMILES) | Kd (AfCYP51B-6×His) [µM] | type I binding spectrum peak (AfCYP51B-6×His; AfCYP51B-6×His) [nm] | type I binding spectrum trough (AfCYP51B-6×His; AfCYP51B-6×His) [nm] | ΔAmax (type I binding) (AfCYP51B-6×His) | ΔAmax (type I binding) (AfCYP51B-6×His; listed as eburicol) | affinity of AfCYP51B for eburicol versus lanosterol (AfCYP51B-6×His; ratio of Ks values) | type I binding response (AfCYP51A-6×His) | MIC80 [1] [µM] | MIC80 [2] [µM] | MIC80 [3] [µM] | MIC80 [4] [µM] | MIC80 [5] [µM] | MIC80 [6] [µM] | MIC80 [7] [µM] | MIC80 [8] [µM] | MIC80 [9] [µM] | MIC80 [10] [µM]
1 | C=C(CC[C@@H](C)[C@H]1CC[C@@]2(C)C3=C(CC[C@]12C)[C@@]1(C)CC[C@H](O)C(C)(C)C1CC3)C(C)C (some centres unmarked) [Eburicol, eburicol] | 71 | 387 | 422 | 0.161 | 0.16 | at least 6 fold | did not give the expected type I binding response; also recorded: did not give a type I binding response | – | – | – | – | – | – | – | – | – | –
2 | CCCCCOc1ccc(-c2cc(-c3ccc(C(=O)N[C@H]4C[C@@H](O)[C@@H](O)NC(=O)[C@@H]5[C@@H](O)[C@@H](C)CN5C(=O)[C@H]([C@H](O)CC(N)=O)NC(=O)[C@H]([C@H](O)[C@@H](O)c5ccc(O)c(OS(=O)(=O)O)c5)NC(=O)[C@@H]5C[C@@H](O)CN5C(=O)[C@H]([C@@H](C)O)NC4=O)cc3)no2)cc1 [MCF, Micafungin] (X1-[Orn(4R-OH,5R-OH)]T[Hyp][hTyr(3S-OH,4S-OH,3'-OSO3H)][Gln(3R-OH)][Pro(3S-OH,4S-Me)]; lactam 1-C) | – | – | – | – | – | – | – | 0.22 ± 0.02 | 0.19 ± 0.03 | 0.17 ± 0.03 | 0.24 ± 0.02 | 0.27 | 0.21 ± 0.01 | 0.28 ± 0.01 | 0.18 ± 0.02 | 0.17 ± 0.03 | 0.14 ± 0.01
